Measured values published in patent US20240132475A1, “SUBSTITUTED PYRAZOLYL COMPOUNDS AS MALT-1 INHIBITORS” (AURIGENE ONCOLOGY LIMITED, priority 2021, published 2024).

Molecular target: T1, MALT-1 (Isoform 1) (Homo sapiens, UniProt Q9UDY8)
T1 construct: using recombinant MALT-1 (Isoform 1, aa-840) generated in house; made in house
T1 sequence (Q9UDY8 1-824): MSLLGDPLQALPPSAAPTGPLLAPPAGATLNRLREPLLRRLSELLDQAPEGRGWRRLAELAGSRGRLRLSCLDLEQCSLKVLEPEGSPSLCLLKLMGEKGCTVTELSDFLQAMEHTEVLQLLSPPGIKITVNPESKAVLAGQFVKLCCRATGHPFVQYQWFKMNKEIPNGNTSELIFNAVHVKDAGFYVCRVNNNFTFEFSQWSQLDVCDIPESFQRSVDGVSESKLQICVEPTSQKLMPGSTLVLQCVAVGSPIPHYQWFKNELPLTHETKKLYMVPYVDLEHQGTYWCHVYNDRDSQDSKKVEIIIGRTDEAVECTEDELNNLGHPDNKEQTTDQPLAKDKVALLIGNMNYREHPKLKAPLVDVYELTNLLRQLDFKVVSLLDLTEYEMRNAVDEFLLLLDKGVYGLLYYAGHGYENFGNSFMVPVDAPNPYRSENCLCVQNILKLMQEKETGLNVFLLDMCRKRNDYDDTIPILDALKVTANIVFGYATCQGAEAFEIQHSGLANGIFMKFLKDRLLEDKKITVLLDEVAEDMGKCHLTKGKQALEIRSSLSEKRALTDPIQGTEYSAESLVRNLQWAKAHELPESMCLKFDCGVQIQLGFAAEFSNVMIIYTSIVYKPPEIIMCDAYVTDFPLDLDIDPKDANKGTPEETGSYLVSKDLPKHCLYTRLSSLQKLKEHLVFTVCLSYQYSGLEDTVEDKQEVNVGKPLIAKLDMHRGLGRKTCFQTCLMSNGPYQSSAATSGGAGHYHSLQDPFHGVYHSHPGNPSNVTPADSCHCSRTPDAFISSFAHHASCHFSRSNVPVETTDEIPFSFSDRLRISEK
Test: MALT-1 (Isoform 1) enzyme fluorescent biochemical assay
Details: for IC50: dose-response, sigmoidal curve fit, reported as groups A, B, C; for inhibition at 1 µM / Percent Inhibition (1 μM): test compound 1 μM; for inhibition at 1 µM / Percent Inhibition (1 μM) / inhibition at 10 µM: recombinant MALT-1 1.5 nM; for inhibition at 1 µM: read-out: Percent Inhibition (1 μM); for inhibition at 10 µM: test compound 10 μM (stated in the cell), read-out: Percent Inhibition (10 μM)
Procedure: The potency of compounds to inhibit MALT-1 (Isoform 1) enzyme was tested in a Fluorescent assay using recombinant MALT-1 (Isoform 1, aa-840) generated in house. The assay buffer was 50 mM HEPES (pH 7.5), 100 mM NaCl, 10 mM DTT, 1 mM EDTA, 0.9 M sodium citrate, 0.01% CHAPS. 1.5 nM of MALT-1 enzyme was incubated with test compounds ([…]) (1% DMSO) in the presence of buffer for 30 minutes at 30° C. The protease reaction was initiated by adding […] of AC-LRSR-MAC (Peptide International, USA) substrate and incubated for 240 min. After 240 min incubation, fluorescence emission of the samples at 460 nm was measured at an excitation of 355 nm. The percent inhibition was calculated using the following formula: […]. IC50 values were determined by fitting the dose-response data to sigmoidal curve fitting equation using Graph pad prism software V8.
ND represents Not Determined.

Structure (SMILES) | IC50 | inhibition at 1 µM | Percent Inhibition (1 μM) | inhibition at 10 µM
CC(c1ccccc1)n1ncc(C(=O)Nc2cnc(-n3nccn3)c(C#N)c2)c1C(F)(F)F (racemic) [Compound 2, N-(5-cyano-6-(2H-1,2,3-triazol-2-yl)pyridin-3-yl)-1-(1-phenylethyl)-5-(trifluoromethyl)-1H-pyrazole-4-carboxamide] | < 250 nM | 96% |  | 
CC(c1cccc(F)c1)n1ncc(C(=O)Nc2cnc(-n3nccn3)c(C#N)c2)c1C(F)(F)F (racemic) [Compound 3, N-(5-cyano-6-(2H-1,2,3-triazol-2-yl)pyridin-3-yl)-1-(1-(3-fluorophenyl)ethyl)-5-(trifluoromethyl)-1H-pyrazole-4-carboxamide] | < 250 nM | 83% |  | 
CC(c1cccc(F)c1)n1ncc(C(=O)Nc2cnc(-n3nccn3)c(Cl)c2)c1C(F)(F)F (racemic) [Compound 4, N-(5-chloro-6-(2H-1,2,3-triazol-2-yl)pyridin-3-yl)-1-(1-(3-fluorophenyl)ethyl)-5-(trifluoromethyl)-1H-pyrazole-4-carboxamide] | 251 to 1000 nM | 77% |  | 
CC(c1ccccc1)n1ncc(C(=O)Nc2cnc(-n3nccn3)c(Cl)c2)c1C(F)(F)F (racemic) [Compound 5, N-(5-chloro-6-(2H-1,2,3-triazol-2-yl)pyridin-3-yl)-1-(1-phenylethyl)-5-(trifluoromethyl)-1H-pyrazole-4-carboxamide] | 251 to 1000 nM | 89% |  | 
CC(c1ccccc1)n1ncc(C(=O)Nc2cnc(-n3nccn3)c(C#N)c2)c1C(F)(F)F (single isomer, unassigned) [Compound 2a] | < 250 nM |  | 99% | 
CC(c1ccccc1)n1ncc(C(=O)Nc2cnc(-n3nccn3)c(C#N)c2)c1C(F)(F)F (single isomer, unassigned) [Compound 2b] | 251 to 1000 nM |  | 57% | 
CC(c1cccc(F)c1)n1ncc(C(=O)Nc2cnc(-n3nccn3)c(C#N)c2)c1C(F)(F)F (single isomer, unassigned) [Compound 3a] | 251 to 1000 nM |  | 76% | 
CC(c1cccc(F)c1)n1ncc(C(=O)Nc2cnc(-n3nccn3)c(C#N)c2)c1C(F)(F)F (single isomer, unassigned) [Compound 3b] | < 250 nM |  | 100% | 
CC(c1cccc(F)c1)n1ncc(C(=O)Nc2cnc(-n3nccn3)c(Cl)c2)c1C(F)(F)F (single isomer, unassigned) [Compound 4a] | > 1000 nM |  |  | 83%
CC(c1cccc(F)c1)n1ncc(C(=O)Nc2cnc(-n3nccn3)c(Cl)c2)c1C(F)(F)F (single isomer, unassigned) [Compound 4b] | < 250 nM | 94% |  | 
CC(c1ccccc1)n1ncc(C(=O)Nc2cnc(-n3nccn3)c(Cl)c2)c1C(F)(F)F (single isomer, unassigned) [Compound 5a] | 251 to 1000 nM |  | 78% | 
CC(c1ccccc1)n1ncc(C(=O)Nc2cnc(-n3nccn3)c(Cl)c2)c1C(F)(F)F (single isomer, unassigned) [Compound 5b] | < 250 nM |  | 99% | 
N#Cc1cc(NC(=O)c2cnn(Cc3cccc(F)c3Cl)c2C(F)(F)F)cnc1-n1nccn1 [Compound 1, 1-(2-chloro-3-fluorobenzyl)-N-(5-cyano-6-(2H-1,2,3-triazol-2-yl)pyridin-3-yl)-5-(trifluoromethyl)-1H-pyrazole-4-carboxamide] | < 250 nM | 100% |  | 
CCC(c1cccc(F)c1)n1ncc(C(=O)Nc2cnc(-n3nccn3)c(C#N)c2)c1C(F)(F)F (stereo not drawn) [Compound 6, N-(5-cyano-6-(2H-1,2,3-triazol-2-yl)pyridin-3-y1)-1-(1-(3-fluorophenyl)propyl)-5-(trifluoromethyl)-1H-pyrazole-4-carboxamide] | 251 to 1000 nM | 81% |  | 
N#Cc1cc(NC(=O)c2cnn(Cc3ccccc3)c2C(F)(F)F)cnc1-n1nccn1 [Compound 7, 1-benzyl-N-(5-cyano-6-(2H-1,2,3-triazol-2-yl)pyridin-3-y1)-5-(trifluoromethyl)-1H-pyrazole-4-carboxamide] | 251 to 1000 nM | 88% |  | 
N#Cc1cc(NC(=O)c2cnn(Cc3cccc(Cl)c3)c2C(F)(F)F)cnc1-n1nccn1 [Compound 8, 1-(3-chlorobenzyl)-N-(5-cyano-6-(2H-1,2,3-triazol-2-y1)pyridin-3-yl)-5-(trifluoromethyl)-1H-pyrazole-4-carboxamide] | < 250 nM | 87% |  | 
N#Cc1cc(NC(=O)c2cnn(Cc3ccc(Cl)cc3)c2C(F)(F)F)cnc1-n1nccn1 [Compound 9, 1-(4-chlorobenzyl)-N-(5-cyano-6-(2H-1,2,3-triazol-2-y1)pyridin-3-yl)-5-(trifluoromethyl)-1H-pyrazole-4-carboxamide] | 251 to 1000 nM | 55% |  | 
N#Cc1cc(NC(=O)c2cnn(Cc3ccc(F)cc3)c2C(F)(F)F)cnc1-n1nccn1 [Compound 10, N-(5-cyano-6-(2H-1,2,3-triazol-2-yl)pyridin-3-yl)-1-(4-fluorobenzyl)-5-(trifluoromethyl)-1H-pyrazole-4-carboxamide] | > 1000 nM | 44% |  | 
N#Cc1cccc(Cn2ncc(C(=O)Nc3cnc(-n4nccn4)c(C#N)c3)c2C(F)(F)F)c1 [Compound 12, N-(5-cyano-6-(2H-1,2,3-triazol-2-yl)pyridin-3-y1)-1-(3-cyanobenzyl)-5-(trifluoromethyl)-1H-pyrazole-4-carboxamide] | < 250 nM | 98% |  | 
N#Cc1cc(NC(=O)c2cnn(Cc3ccncc3)c2C(F)(F)F)cnc1-n1nccn1 [Compound 13, N-(5-cyano-6-(2H-1,2,3-triazol-2-yl)pyridin-3-yl)-1-(pyridin-4-ylmethyl)-5-(trifluoromethyl)-1H-pyrazole-4-carboxamide] | > 1000 nM | 40% |  | 
N#Cc1cc(NC(=O)c2cnn(Cc3cccc(C(F)(F)F)c3)c2C(F)(F)F)cnc1-n1nccn1 [Compound 14, N-(5-cyano-6-(2H-1,2,3-triazol-2-yl)pyridin-3-y1)-5-(trifluoromethyl)-1-(3-(trifluoromethyl)benzyl)-1H-pyrazole-4-carboxamide] | > 1000 nM | 67% |  | 
N#Cc1cc(NC(=O)c2cnn(Cc3cccc(F)c3)c2C(F)(F)F)cnc1-n1nccn1 [Compound 15, N-(5-cyano-6-(2H-1,2,3-triazol-2-yl)pyridin-3-y1)-1-(3-fluorobenzy1)-5-(trifluoromethyl)-1H-pyrazole-4-carboxamide] | < 250 nM | 99% |  | 
COc1cccc(Cn2ncc(C(=O)Nc3cnc(-n4nccn4)c(C#N)c3)c2C(F)(F)F)c1 [Compound 17, N-(5-cyano-6-(2H-1,2,3-triazol-2-yl)pyridin-3-y1)-1-(3-methoxybenzyl)-5-(trifluoromethyl)-1H-pyrazole-4-carboxamide] |  |  |  | 48%
N#Cc1cc(NC(=O)c2cnn(Cc3cccnc3)c2C(F)(F)F)cnc1-n1nccn1 [Compound 18, N-(5-cyano-6-(2H-1,2,3-triazol-2-yl)pyridin-3-yl)-1-(pyridin-3-ylmethyl)-5-(trifluoromethyl)-1H-pyrazole-4-carboxamide] | > 1000 nM | 47% |  | 
O=C(Nc1ccnc(C(F)(F)F)c1)c1cnn(Cc2cccc(F)c2)c1C(F)(F)F [Compound 19, 1-(3-fluorobenzyl)-5-(trifluoromethyl)-N-(2-(trifluoromethyl)pyridin-4-yl)-1H-pyrazole-4-carboxamide] | > 1000 nM | 22% |  | 
N#Cc1cc(NC(=O)c2cnn(Cc3ccccc3Cl)c2C(F)(F)F)cnc1-n1nccn1 [Compound 20, 1-(2-chlorobenzyl)-N-(5-cyano-6-(2H-1,2,3-triazol-2-y1)pyridin-3-yl)-5-(trifluoromethyl)-1H-pyrazole-4-carboxamide] | > 1000 nM | 46% |  | 
